The experiment deals with Recombinant N-terminal GST tag full-length human HDAC11 (Homo sapiens (Human), UniProt Q96DB2). The experiment can be described thus: Probe binding HDAC11 assay, time resolved fluorescence (TRF). The settings on record: read-out: HDAC11 IC50 Range. As to the method: The probe binding HDAC11 assay was performed using a time resolved fluorescence (TRF) assay format. Recombinant N-terminal GST tag full-length human HDAC11 was expressed and purified from baculovirus in Sf9 insect cells (SignalChem, # H93-30G-1000). Each assay was performed in 1536 black well microplates (Corning, #3936) in a final volume of 8 μL in assay buffer containing 50 mM HEPES (pH 7.5), 50 mM KCl, 50 mM NaCl, 0.5 mM GSH (L-Glutathione reduced, Sigma #G4251), 0.03% BGG (0.22 μM filtered, Sigma, #G7516-25G), and 0.01% Triton X-100 (Sigma, #T9284-10L). 100 nL of 10-point, 3-fold serial dilution in DMSO was pre-dispensed into respective wells of 1536 assay plates for a final test concentration range of 25 μM to 1.3 nM respectively. The final concentration in the assay of HDAC11 and probe (a fluorescein labeled HDAC 11 inhibitor) was 2.5 nM and 20 nM respectively. 4 μL of 2× probe and 2× anti-GST Terbium (Cisbio, #61GSTXLB) was added to assay plates followed by 4 μL of 2×HDAC11. Plates were incubated for 16 hours at room temperature before time resolved fluorescence was read on the Envision (Excitation at 340 nm, and Emission at 485 nm and 535 nm, Perkin Elmer).
Chain of Recombinant N-terminal GST tag full-length human HDAC11 (Q96DB2 whole entry): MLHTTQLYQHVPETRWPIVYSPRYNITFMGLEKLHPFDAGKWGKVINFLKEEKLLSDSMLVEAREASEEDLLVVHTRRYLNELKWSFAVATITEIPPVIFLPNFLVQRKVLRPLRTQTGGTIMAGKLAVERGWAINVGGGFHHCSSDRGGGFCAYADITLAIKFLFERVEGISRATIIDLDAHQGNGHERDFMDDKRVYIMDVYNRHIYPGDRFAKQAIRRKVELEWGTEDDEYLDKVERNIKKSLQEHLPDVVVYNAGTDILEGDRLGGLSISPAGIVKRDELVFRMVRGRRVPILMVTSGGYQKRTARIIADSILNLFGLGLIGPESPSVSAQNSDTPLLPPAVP
Data from HDAC11 Assays were reported as percent inhibition (inh) compared with control wells based on the following equation: % inh=1−((FLU−AveLow)/(AveHigh−AveLow)) where FLU=measured time resolved fluorescence. AveLow=average time resolved fluorescence of no enzyme control (n=32). AveHigh=average time resolved fluorescence of DMSO control (n=32). IC50 values were determined by curve fitting of the standard 4 parameter logistic fitting algorithm included in the Activity Base software package: IDBS XE Designer Model205. Data is fitted using the Levenburg Marquardt algorithm.
For `COCCn1c(Nc2cccc(C(=O)NO)c2)nc2cc(C#N)c(C(F)(F)F)cc21` [Example 19-1, 3-(5-cyano-1-(2-methoxyethyl)-6-(trifluoromethyl)-1H-benzo[d]imidazol-2-ylamino)-N-hydroxybenzamide], the IC50 is < 500 nM. The result for `O=C(NCc1ccccc1)ONC(=O)c1cccc(Nc2nc3cc(-c4ccccc4)c(C(F)(F)F)cc3[nH]2)c1` [Example 37-1, N-((benzylcarbamoyl)oxy)-3-((5-phenyl-6-(trifluoromethyl)-1H-benzo[d]imidazol-2-yl)amino)benzamide] reads < 500 nM.

As to `COc1cc2nc(Nc3cccc(C(=O)NO)c3)[nH]c2cc1OC` [Example 33-13, 3-((5,6-dimethoxy-1H-benzo[d]imidazol-2-yl)amino)-N-hydroxybenzamide], the IC50 was > 1000 nM.

`Cc1cc2[nH]c(Nc3cccc(C(=O)NO)c3)nc2cc1F` [Example 33-10, 3-((5-fluoro-6-methyl-1H-benzo[d]imidazol-2-yl)amino)-N-hydroxybenzamide]: the IC50 was < 500 nM. The result for `O=C(NO)c1cc(Nc2nc3cc(Cl)c(Cl)cc3o2)ccc1F` [Example 4-1, 5-(5,6-dichlorobenzo[d]oxazol-2-ylamino)-2-fluoro-N-hydroxybenzamide] reads < 500 nM; that for `COCCn1c(Nc2cc(C(=O)NO)c3ccccc3c2)nc2ccccc21` [Example 23-3, N-hydroxy-3-((1-(2-methoxyethyl)-1H-benzo[d]imidazol-2-yl)amino)-1-naphthamide], > 1000 nM; that for `CC(C)n1c(Nc2cccc(C(=O)NO)c2)nc2cc(-c3ccccc3)c(C(F)(F)F)cc21` [Example 16-2, N-hydroxy-3-((1-isopropyl-5-phenyl-6-(trifluoromethyl)-1H-benzo[d]imidazol-2-yl)amino)benzamide], < 500 nM. With `COCCn1c(Nc2cccc(C(=O)NO)c2)nc2c(OC)cccc21` [Example 24-1, N-hydroxy-3-((4-methoxy-1-(2-methoxyethyl)-1H-benzo[d]imidazol-2-yl)amino)benzamide], the IC50 is > 1000 nM.

Consider `Cc1cc2[nH]c(Nc3cccc(C(=O)NO)c3)nc2cc1Cl` [Example 33-2, 3-((5-chloro-6-methyl-1H-benzo[d]imidazol-2-yl)amino)-N-hydroxybenzamide], for which the IC50 is < 500 nM. Under `O=C(NO)c1cccc(Nc2nc3cc(C(F)(F)F)c(-c4ccccc4CO)cc3[nH]2)c1` [Example 36-11, N-hydroxy-3-((6-(2-(hydroxymethyl)phenyl)-5-(trifluoromethyl)-1H-benzo[d]imidazol-2-yl)amino)benzamide] stands < 500 nM. For the compound `Cn1c(Nc2cccc(C(=O)NO)c2)nc2cc(C(F)(F)F)c(-c3ccccc3)cc21` [Example 35-3, N-hydroxy-3-((1-methyl-6-phenyl-5-(trifluoromethyl)-1H-benzo[d]imidazol-2-yl)amino)benzamide], the IC50 was < 500 nM.

Turning to `CS(=O)(=O)c1ccc2[nH]c(Nc3cccc(C(=O)NO)c3)nc2c1` [Example 33-23, N-hydroxy-3-((5-(methylsulfonyl)-1H-benzo[d]imidazol-2-yl)amino)benzamide], the IC50 is > 1000 nM.

On to `O=C(NO)c1cccc(Nc2nc3cc(Cl)c(Cl)cc3o2)n1` [Example 31-1, 6-((5,6-dichlorobenzo[d]oxazol-2-yl)amino)-N-hydroxypicolinamide], for which the half-inhibitory concentration (IC50) was < 500 nM. Under `O=C(NO)c1cccc(Nc2nc3cc(C(F)(F)F)ccc3[nH]2)c1` [Example 33-22, N-hydroxy-3-((5-(trifluoromethyl)-1H-benzo[d]imidazol-2-yl)amino)benzamide] stands < 500 nM; under `COCCN(c1cccc(C(=O)NO)c1)c1nc2ccccc2[nH]1` [Example 25-1, 3-((1H-benzo[d]imidazol-2-yl)(2-methoxyethyl)amino)-N-hydroxybenzamide], > 1000 nM.

The values above are taken from patent US10508088B2, “Methods using HDAC11 inhibitors” (FORMA Therapeutics, Inc., priority 2016, dated 2019).
